Measurements: PMC5501740 (Clinical and experimental allergy : journal of the British …, 2017)
Residues, ends and D or L forms follow the SMILES beside them. *: point of attachment. AMC = Cc1cc(=O)oc2cc(N*)ccc12; Boc = CC(C)(C)OC(=O)*

Experiments:
Experiment in all cases: fluorogenic AMC release, Michaelis-Menten fit
Assay type in all cases: biochemical, Blattella germanica
Settings in all cases: read-out: Substrate Km (μM) / QAR / Trypsin; 50 mM Tris-HCl pH 8, 0.2% NP40, 1.5 mM CaCl2
E1 = test system: E1
E3 = test system: E3
E2 = test system: E2

Km (E1): 3 ± 0.8 µM
Km (E3): 3 ± 0.3 µM
Km (E2): 2 ± 0.3 µM
SMILES: Cc1cc(=O)oc2cc(NC(=O)[C@H](CCCNC(=N)N)NC(=O)[C@H](C)NC(=O)[C@H](CCC(N)=O)NC(=O)OC(C)(C)C)ccc12 [QAR, Boc-Glutamine-Alanine-Arginine (QAR)-aminomethylcoumarin] (Boc-Gln-Ala-Arg-{AMC})
